According to ChEMBL document CHEMBL4819064, “Discovery of new pyrimidopyrrolizine/indolizine-based derivatives as P-glycoprotein inhibitors: Design, synthesis, cytotoxicity, and MDR reversal activities” (Eur J Med Chem, 2021):

Legend:
A2780 = experiment: Cytotoxicity against human A2780 cells assessed as reduction in cell viability incubated for 72 hrs by MTT assay; details: A2780, 72 h
HT-29 = experiment: Cytotoxicity against human HT29 cells assessed as reduction in cell viability incubated for 72 hrs by MTT assay; details: HT-29, 72 h
[1] = Selectivity index, ratio of IC50 for human MRC5 cells to IC50 for human A2780 cells; assay type: toxicity; details: MRC5 cells versus A2780 cells, read-out: Ratio IC50
[2] = Selectivity index, ratio of IC50 for human MRC5 cells to IC50 for human HT29 cells; assay type: toxicity; details: MRC5 cells versus HT29 cells, read-out: Ratio IC50
[3] = Selectivity index, ratio of IC50 for human MRC5 cells to IC50 for human MCF7 cells; assay type: toxicity; details: MRC5 cells versus MCF7 cells, read-out: Ratio IC50
MCF7 = experiment: Cytotoxicity against human MCF7 cells assessed as reduction in cell viability incubated for 72 hrs by MTT assay; assay type: functional, cell-based; details: MCF7, 72 h
MRC5 = experiment: Cytotoxicity against human MRC5 cells assessed as reduction in cell viability incubated for 72 hrs by MTT assay; details: MRC5, 72 h
NCI/ADR-RES [4] = experiment: Synergistic cytotoxicity against human MCF7/ADR cells assessed as combination index at 0.5 uM after 72 hrs in presence of 0.25 uM doxorubicin by MTT assay; assay type: functional
NCI/ADR-RES [5] = experiment: Synergistic cytotoxicity against human MCF7/ADR cells assessed as combination index at 0.25 uM after 72 hrs in presence of 0.5 uM doxorubicin by MTT assay; assay type: functional
NCI/ADR-RES [6] = experiment: Synergistic cytotoxicity against human MCF7/ADR cells assessed as combination index at 0.5 uM after 72 hrs in presence of 1 uM doxorubicin by MTT assay; assay type: functional
NCI/ADR-RES [7] = experiment: Synergistic cytotoxicity against human MCF7/ADR cells assessed as combination index at 1 uM after 72 hrs in presence of 0.5 uM doxorubicin by MTT assay; assay type: functional
[8] = Reversal of multidrug resistant activity in human MCF7/ADR cells assessed as reversal fold after 72 hrs by MTT assay; assay type: functional, NCI/ADR-RES
NCI/ADR-RES [9] = experiment: Synergistic cytotoxicity against human MCF7/ADR cells assessed as combination index at 1 uM after 72 hrs in presence of 1 uM doxorubicin by MTT assay; assay type: functional
NCI/ADR-RES [10] = experiment: Synergistic cytotoxicity against human MCF7/ADR cells assessed as combination index at 0.25 uM after 72 hrs in presence of 0.25 uM doxorubicin by MTT assay; assay type: functional
NCI/ADR-RES [11] = experiment: Synergistic cytotoxicity against human MCF7/ADR cells assessed as combination index at 0.5 uM after 72 hrs in presence of 0.5 uM doxorubicin by MTT assay; assay type: functional
NCI/ADR-RES [12] = experiment: Synergistic cytotoxicity against human MCF7/ADR cells assessed as combination index at 1 uM after 72 hrs in presence of 0.25 uM doxorubicin by MTT assay; assay type: functional
NCI/ADR-RES [13] = experiment: Cytotoxicity against human MCF7/ADR cells assessed as reduction in cell viability incubated for 72 hrs by MTT assay
NCI/ADR-RES [14] = experiment: Synergistic cytotoxicity against human MCF7/ADR cells assessed as combination index at 0.25 uM after 72 hrs in presence of 1 uM doxorubicin by MTT assay; assay type: functional
NCI/ADR-RES [15] = experiment: Cytotoxicity against human MCF7/ADR cells assessed as reduction in cell viability incubated for 72 hrs in presence of doxorubicin by MTT assay; assay type: functional, cell-based
P-gp (ABCB1) [16] = target: T1, P-gp (ABCB1) (Homo sapiens, UniProt P08183); experiment: Inhibition of P-gp activity in human MCF7/ADR cells at 500 nM after 72 hrs by RT-PCR analysis relative to control; assay type: cell-based, NCI/ADR-RES; details: MCF7/ADR cells
T1 sequence (P08183 whole entry): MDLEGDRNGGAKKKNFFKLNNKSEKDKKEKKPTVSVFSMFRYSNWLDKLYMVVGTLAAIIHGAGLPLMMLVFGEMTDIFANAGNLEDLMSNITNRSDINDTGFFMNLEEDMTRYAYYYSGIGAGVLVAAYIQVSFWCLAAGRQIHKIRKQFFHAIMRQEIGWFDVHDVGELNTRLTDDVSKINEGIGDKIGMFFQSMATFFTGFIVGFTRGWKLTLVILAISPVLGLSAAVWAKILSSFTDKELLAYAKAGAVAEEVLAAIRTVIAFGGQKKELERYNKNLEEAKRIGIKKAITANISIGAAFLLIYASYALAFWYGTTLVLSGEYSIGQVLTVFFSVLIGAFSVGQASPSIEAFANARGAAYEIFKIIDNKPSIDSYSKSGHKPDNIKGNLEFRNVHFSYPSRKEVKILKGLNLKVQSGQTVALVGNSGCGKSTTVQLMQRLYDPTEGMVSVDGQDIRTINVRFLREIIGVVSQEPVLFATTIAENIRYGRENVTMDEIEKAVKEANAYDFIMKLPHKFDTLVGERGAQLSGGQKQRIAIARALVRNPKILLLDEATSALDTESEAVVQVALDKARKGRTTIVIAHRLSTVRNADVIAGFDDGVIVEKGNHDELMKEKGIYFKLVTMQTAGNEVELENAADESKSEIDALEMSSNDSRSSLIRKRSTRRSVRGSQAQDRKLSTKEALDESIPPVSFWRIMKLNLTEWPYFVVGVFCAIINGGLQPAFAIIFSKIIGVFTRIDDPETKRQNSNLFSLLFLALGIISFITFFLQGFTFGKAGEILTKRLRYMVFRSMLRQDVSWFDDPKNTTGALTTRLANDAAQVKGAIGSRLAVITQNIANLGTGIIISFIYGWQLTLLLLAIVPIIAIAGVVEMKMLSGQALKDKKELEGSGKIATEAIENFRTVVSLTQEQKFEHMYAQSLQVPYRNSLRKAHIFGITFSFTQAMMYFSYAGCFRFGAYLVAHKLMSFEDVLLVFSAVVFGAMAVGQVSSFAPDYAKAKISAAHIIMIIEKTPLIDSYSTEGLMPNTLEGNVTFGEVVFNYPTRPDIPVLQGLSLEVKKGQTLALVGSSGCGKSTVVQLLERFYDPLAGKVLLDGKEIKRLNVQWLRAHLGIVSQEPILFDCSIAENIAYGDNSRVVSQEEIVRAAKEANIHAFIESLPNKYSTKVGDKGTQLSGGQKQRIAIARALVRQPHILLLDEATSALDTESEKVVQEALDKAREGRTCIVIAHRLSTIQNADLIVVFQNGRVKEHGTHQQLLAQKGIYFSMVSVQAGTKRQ

P-gp (ABCB1) [17] = target: T1, P-gp (ABCB1); experiment: Inhibition of P-gp activity in human MCF7/ADR cells at 125 nM after 72 hrs by RT-PCR analysis relative to control; assay type: cell-based, NCI/ADR-RES
P-gp (ABCB1) [18] = target: T1, P-gp (ABCB1); experiment: Inhibition of P-gp activity in human MCF7/ADR cells at 250 nM after 72 hrs by RT-PCR analysis relative to control; assay type: cell-based, NCI/ADR-RES; details: MCF7/ADR cells
P-gp (ABCB1) [19] = target: T1, P-gp (ABCB1); experiment: Inhibition of P-gp activity in human MCF7/ADR cells at 1000 nM after 72 hrs by RT-PCR analysis relative to control; assay type: cell-based, NCI/ADR-RES; details: MCF7/ADR cells
[20] = target: ATP-dependent translocase ABCB1 (Homo sapiens, UniProt P08183); experiment: Inhibition of P-gp activity in human MCF7/ADR cells after 72 hrs by RT-PCR analysis; assay type: cell-based; details: nci/adr-res, at 125 to 1000 nM, dose 125-1000 nM
Sequence of ATP-dependent translocase ABCB1 (P08183 whole entry): as above

| SMILES | IC50 (A2780) | IC50 (HT-29) | selectivity ratio [1] | selectivity ratio [2] | selectivity ratio [3] | IC50 (MCF7) | IC50 (MRC5) | CI (NCI/ADR-RES [4]) | CI (NCI/ADR-RES [5]) | CI (NCI/ADR-RES [6]) | CI (NCI/ADR-RES [7]) | fold change (FC) [8] | CI (NCI/ADR-RES [9]) | CI (NCI/ADR-RES [10]) | CI (NCI/ADR-RES [11]) | CI (NCI/ADR-RES [12]) | IC50 (NCI/ADR-RES [13]) | CI (NCI/ADR-RES [14]) | IC50 (NCI/ADR-RES [15]) | further results |
| --- | --- | --- | --- | --- | --- | --- | --- | --- | --- | --- | --- | --- | --- | --- | --- | --- | --- | --- | --- | --- |
| Cc1nc2c(C#N)c3n(c2c(=O)n1-c1ccc(Br)cc1)CCCC3 | 160 nM | 10800 nM | 23.2 | 0.35 | 2.25 | 1650 nM | 3710 nM |  |  |  |  |  |  |  |  |  |  |  |  |  |
| COc1ccc(NC(=O)c2c3nc[nH]c(=O)c3c3n2CCC3)cc1 | 15600 nM | 140 nM | 0.1 | 10.9 | 1.07 | 1430 nM | 1530 nM |  |  |  |  |  |  |  |  |  |  |  |  |  |
| COc1ccc(-n2c(C)nc3c(C#N)c4n(c3c2=O)CCC4)cc1 | 70 nM | 160 nM | 247 | 108 | 216 | 80 nM | 17300 nM | 37.214 | 11.363 | 0.2 | 5.646 | 2.4 | 0.3 | >100 | 2.952 | >100 | 30500 nM | 0.19 | 7580 nM |  |
| Cc1nc2c(C#N)c3n(c2c(=O)n1-c1ccc(Cl)cc1)CCCC3 | 630 nM | 10500 nM | 2.44 | 0.15 | 0.14 | 10800 nM | 1540 nM |  |  |  |  |  |  |  |  |  |  |  |  |  |
| N#Cc1c2n(c3c(=O)n(-c4ccc(Cl)cc4)cnc13)CCCC2 | 70 nM | 420 nM | 4.29 | 0.71 | 1.2 | 250 nM | 300 nM | >100 | >100 | 0.9 | >100 | 2.88 | 0.21 | >100 | >100 | >100 | 37300 nM | 0.19 | 6330 nM |  |
| COc1ccc(N2CC(=O)Nc3c(C#N)c4n(c3C2=O)CCC4)cc1 | 6280 nM | 200 nM | 1.52 | 47.9 | 3.38 | 2830 nM | 9570 nM |  |  |  |  |  |  |  |  |  |  |  |  |  |
| N#Cc1c2n(c3c(=O)n(-c4ccc(F)cc4)c(=O)[nH]c13)CCC2 | 730 nM | 4380 nM | 0.33 | 0.05 | 0.27 | 880 nM | 240 nM |  |  |  |  |  |  |  |  |  |  |  |  |  |
| N#Cc1c2n(c3c(=O)n(-c4ccc(F)cc4)cnc13)CCC2 | 720 nM | 480 nM | 15.6 | 23.4 | 17.3 | 650 nM | 11200 nM | >100 | 14.6 | 0.12 | 2.647 | 8.24 | 0.1 | >100 | 1.089 | >100 | 10300 nM | 0.6 | 2210 nM | inhibition at 72 h, 0.5 µM (P-gp (ABCB1) [16]): 91%; inhibition at 72 h, 0.125 µM (P-gp (ABCB1) [17]): 9%; inhibition at 72 h, 0.25 µM (P-gp (ABCB1) [18]): 65%; inhibition at 72 h, 1 µM (P-gp (ABCB1) [19]): 92%; inhibition (INH) [20]: Dose-Dependent Effect |
